Each molecule was assayed on D-263MG (assay: cells). Conditions: Homo sapiens, D-263MG.
Assay type: functional, cell-based, Homo sapiens
Description: SANGER: Inhibition of human D-263MG cell growth in a cell viability assay.
`COc1ccc(-c2cc3nccn3c(Nc3ncccc3C(N)=O)n2)cc1OC` was tested, and the IC50 was > 8 µM.

The molecules below were run on LU-134-A (assay: cells). Conditions: Homo sapiens, LU-134-A.
Assay type: functional, cell-based, Homo sapiens
Description: SANGER: Inhibition of human LU-134-A cell growth in a cell viability assay.
In the case of `COc1ccc(-c2cc3nccn3c(Nc3ncccc3C(N)=O)n2)cc1OC`, the IC50 is reported as 4.32 µM.

These molecules were tested on KM12 (assay: cells). Conditions: Homo sapiens, KM12.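 Further: KM12 cell growth inhibition, read out with a cell viability assay.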
Assay type: functional, cell-based, Homo sapiens
Description: SANGER: Inhibition of human KM12 cell growth in a cell viability assay.
`COc1ccc(-c2cc3nccn3c(Nc3ncccc3C(N)=O)n2)cc1OC` showed an IC50 of 2.69 µM.

The molecules below were run on LS-411N (assay: cells). Conditions: Homo sapiens, LS-411N.
Assay type: functional, cell-based, Homo sapiens
With `COc1ccc(-c2cc3nccn3c(Nc3ncccc3C(N)=O)n2)cc1OC` the IC50 was 3.78 µM.

The molecules below were run on LC-2-ad (assay: cells). Conditions: Homo sapiens, LC-2-ad.
Assay type: functional, cell-based, Homo sapiens
Description: SANGER: Inhibition of human LC-2-ad cell growth in a cell viability assay.
`COc1ccc(-c2cc3nccn3c(Nc3ncccc3C(N)=O)n2)cc1OC` gave an IC50 of 1.82 µM.

The molecules below were run on SW 962 (assay: cells). Conditions: Homo sapiens, SW 962.
Assay type: functional, cell-based, Homo sapiens
Description: SANGER: Inhibition of human SW962 cell growth in a cell viability assay.
For `COc1ccc(-c2cc3nccn3c(Nc3ncccc3C(N)=O)n2)cc1OC`, the IC50 was > 8 µM.

What follows are molecules tested on NCI-H1581 (assay: cells). Conditions: Homo sapiens, NCI-H1581.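 Further: cell growth inhibition read out by a viability assay.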
Assay type: functional, cell-based, Homo sapiens
Description: SANGER: Inhibition of human NCI-H1581 cell growth in a cell viability assay.
`COc1ccc(-c2cc3nccn3c(Nc3ncccc3C(N)=O)n2)cc1OC` was tested, and the IC50 was > 8 µM.

What follows are molecules tested on EW-1 (assay: cells). Conditions: Homo sapiens, EW-1.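 Further: growth inhibition of the human EW-1 cell line, read out by a cell viability assay.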
Assay type: functional, cell-based, Homo sapiens
Description: SANGER: Inhibition of human EW-1 cell growth in a cell viability assay.
For `COc1ccc(-c2cc3nccn3c(Nc3ncccc3C(N)=O)n2)cc1OC`, the IC50 was 1.17 µM.

These molecules were tested on MN-60 (assay: cells). Conditions: Homo sapiens, MN-60.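 Further: growth inhibition of the MN-60 cell line, determined with a cell viability assay.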
Assay type: functional, cell-based, Homo sapiens
Description: SANGER: Inhibition of human MN-60 cell growth in a cell viability assay.
In the case of `COc1ccc(-c2cc3nccn3c(Nc3ncccc3C(N)=O)n2)cc1OC`, the IC50 is reported as > 8 µM.

The molecules below were run on NCI-H526 (assay: cells). Conditions: Homo sapiens, NCI-H526.
Assay type: functional, cell-based, Homo sapiens
Description: SANGER: Inhibition of human NCI-H526 cell growth in a cell viability assay.
`COc1ccc(-c2cc3nccn3c(Nc3ncccc3C(N)=O)n2)cc1OC` gave an IC50 of 5.28 µM.

Each molecule was assayed on KP-N-YS (assay: cells). Conditions: Homo sapiens, KP-N-YS.
Assay type: functional, cell-based, Homo sapiens
Description: SANGER: Inhibition of human KP-N-YS cell growth in a cell viability assay.
`COc1ccc(-c2cc3nccn3c(Nc3ncccc3C(N)=O)n2)cc1OC` was tested, and the IC50 was 7 µM.

These molecules were tested on HT (assay: cells). Conditions: Homo sapiens, HT.
Assay type: functional, cell-based, Homo sapiens
Description: SANGER: Inhibition of human HT cell growth in a cell viability assay.
Work on `COc1ccc(-c2cc3nccn3c(Nc3ncccc3C(N)=O)n2)cc1OC` yielded an IC50 of 6.22 µM.

Each molecule was assayed on EW-3 (assay: cells). Conditions: Homo sapiens, EW-3.
Assay type: functional, cell-based, Homo sapiens
Description: SANGER: Inhibition of human EW-3 cell growth in a cell viability assay.
Molecule `COc1ccc(-c2cc3nccn3c(Nc3ncccc3C(N)=O)n2)cc1OC` has an IC50 of 4.93 µM.

What follows are molecules tested on U-266 (assay: cells). Conditions: Homo sapiens, U-266.
Assay type: functional, cell-based, Homo sapiens
Description: SANGER: Inhibition of human U-266 cell growth in a cell viability assay.
`COc1ccc(-c2cc3nccn3c(Nc3ncccc3C(N)=O)n2)cc1OC` gave an IC50 of 4.71 µM.

Each molecule was assayed on RS4-11 (assay: cells). Conditions: Homo sapiens, RS4-11.
Assay type: functional, cell-based, Homo sapiens
Description: SANGER: Inhibition of human RS4-11 cell growth in a cell viability assay.
`COc1ccc(-c2cc3nccn3c(Nc3ncccc3C(N)=O)n2)cc1OC` was tested, and the IC50 was 1.23 µM.

These molecules were tested on NCI-H1648 (assay: cells). Conditions: Homo sapiens, NCI-H1648.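 Further: cell viability assay measuring inhibition of NCI-H1648 cell growth, from the Sanger screening data.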
Assay type: functional, cell-based, Homo sapiens
Description: SANGER: Inhibition of human NCI-H1648 cell growth in a cell viability assay.
For `COc1ccc(-c2cc3nccn3c(Nc3ncccc3C(N)=O)n2)cc1OC`, the IC50 was > 8 µM.

The molecules below were run on A253 cell line (assay: cells). Conditions: Homo sapiens, A253.
Assay type: functional, cell-based, Homo sapiens
Description: SANGER: Inhibition of human A253 cell growth in a cell viability assay.
`COc1ccc(-c2cc3nccn3c(Nc3ncccc3C(N)=O)n2)cc1OC` was tested, and the IC50 was > 8 µM.

These molecules were tested on HCE-4 (assay: cells). Conditions: Homo sapiens.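 Further: cell viability assay measuring inhibition of growth in the human HCE-4 cell line.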
Assay type: functional, cell-based
Description: SANGER: Inhibition of human HCE-4 cell growth in a cell viability assay.
In the case of `COc1ccc(-c2cc3nccn3c(Nc3ncccc3C(N)=O)n2)cc1OC`, the IC50 is reported as 5.02 µM.

Each molecule was assayed on OMC-1 (assay: cells). Conditions: Homo sapiens, OMC-1.
Assay type: functional, cell-based, Homo sapiens
Description: SANGER: Inhibition of human OMC-1 cell growth in a cell viability assay.
For `COc1ccc(-c2cc3nccn3c(Nc3ncccc3C(N)=O)n2)cc1OC`, the IC50 was > 8 µM.

The molecules below were run on KALS-1 (assay: cells). Conditions: Homo sapiens, KALS-1; read-out: IC50.
Assay type: functional, cell-based, Homo sapiens
Description: SANGER: Inhibition of human KALS-1 cell growth in a cell viability assay.
For `COc1ccc(-c2cc3nccn3c(Nc3ncccc3C(N)=O)n2)cc1OC`, the IC50 was > 8 µM.

The molecules below were run on MLMA (assay: cells). Conditions: Homo sapiens, MLMA.
Assay type: functional, cell-based, Homo sapiens
Description: SANGER: Inhibition of human MLMA cell growth in a cell viability assay.
`COc1ccc(-c2cc3nccn3c(Nc3ncccc3C(N)=O)n2)cc1OC` gave an IC50 of 0.993 µM.

Each molecule was assayed on DSH1 (assay: cells). Conditions: Homo sapiens.
Assay type: functional, cell-based
Description: SANGER: Inhibition of human DSH1 cell growth in a cell viability assay.
In the case of `COc1ccc(-c2cc3nccn3c(Nc3ncccc3C(N)=O)n2)cc1OC`, the IC50 is reported as > 8 µM.

These molecules were tested on NCI-H1770 (assay: cells). Conditions: Homo sapiens, NCI-H1770.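 Further: growth inhibition of NCI-H1770 cells determined with a viability readout.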
Assay type: functional, cell-based, Homo sapiens
Description: SANGER: Inhibition of human NCI-H1770 cell growth in a cell viability assay.
With `COc1ccc(-c2cc3nccn3c(Nc3ncccc3C(N)=O)n2)cc1OC` the IC50 was 2.61 µM.

Each molecule was assayed on PSN1 (assay: cells). Conditions: Homo sapiens, PSN1.
Assay type: functional, cell-based, Homo sapiens
Description: SANGER: Inhibition of human PSN1 cell growth in a cell viability assay.
`COc1ccc(-c2cc3nccn3c(Nc3ncccc3C(N)=O)n2)cc1OC` was tested, and the IC50 was 0.897 µM.

What follows are molecules tested on RKO (assay: cells). Conditions: Homo sapiens, RKO.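 Further: growth inhibition of human RKO cells, read out with a cell viability assay.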
Assay type: functional, cell-based, Homo sapiens
Description: SANGER: Inhibition of human RKO cell growth in a cell viability assay.
`COc1ccc(-c2cc3nccn3c(Nc3ncccc3C(N)=O)n2)cc1OC` showed an IC50 of 2.77 µM.

What follows are molecules tested on KU812 cell line (assay: cells). Conditions: Homo sapiens, KU812.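 Further: growth inhibition of KU812 cells, read out with a cell viability assay.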
Assay type: functional, cell-based, Homo sapiens
Description: SANGER: Inhibition of human KU812 cell growth in a cell viability assay.
`COc1ccc(-c2cc3nccn3c(Nc3ncccc3C(N)=O)n2)cc1OC` showed an IC50 of 4.24 µM.

What follows are molecules tested on J-RT3-T3-5 (assay: cells). Conditions: Homo sapiens, J-RT3-T3-5.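 Further: cell viability assay measuring growth inhibition of human J-RT3-T3-5 cells.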
Assay type: functional, cell-based, Homo sapiens
Description: SANGER: Inhibition of human J-RT3-T3-5 cell growth in a cell viability assay.
For `COc1ccc(-c2cc3nccn3c(Nc3ncccc3C(N)=O)n2)cc1OC`, the IC50 was 6.24 µM.

Each molecule was assayed on NCI-H446 (assay: cells). Conditions: Homo sapiens, NCI-H446.
Assay type: functional, cell-based, Homo sapiens
Description: SANGER: Inhibition of human NCI-H446 cell growth in a cell viability assay.
With `COc1ccc(-c2cc3nccn3c(Nc3ncccc3C(N)=O)n2)cc1OC` the IC50 was 4.99 µM.

These molecules were tested on KG-1 (assay: cells). Conditions: Homo sapiens, KG-1.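 Further: growth inhibition of KG-1 cells, read out by a cell viability assay.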
Assay type: functional, cell-based, Homo sapiens
Description: SANGER: Inhibition of human KG-1 cell growth in a cell viability assay.
Work on `COc1ccc(-c2cc3nccn3c(Nc3ncccc3C(N)=O)n2)cc1OC` yielded an IC50 of 2.87 µM.

These molecules were tested on KY821 (assay: cells). Conditions: Homo sapiens, KY821.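 Further: growth inhibition of human KY821 cells, read out by a cell viability assay.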
Assay type: functional, cell-based, Homo sapiens
Description: SANGER: Inhibition of human KY821 cell growth in a cell viability assay.
`COc1ccc(-c2cc3nccn3c(Nc3ncccc3C(N)=O)n2)cc1OC` was tested, and the IC50 was > 8 µM.

The molecules below were run on SK-MEL-2 (assay: cells). Conditions: Homo sapiens, SK-MEL-2.
Assay type: functional, cell-based, Homo sapiens
Description: SANGER: Inhibition of human SK-MEL-2 cell growth in a cell viability assay.
With `COc1ccc(-c2cc3nccn3c(Nc3ncccc3C(N)=O)n2)cc1OC` the IC50 was 1.89 µM.

Each molecule was assayed on NCI-H1092 (assay: cells). Conditions: Homo sapiens, NCI-H1092.
Assay type: functional, cell-based, Homo sapiens
Description: SANGER: Inhibition of human NCI-H1092 cell growth in a cell viability assay.
In the case of `COc1ccc(-c2cc3nccn3c(Nc3ncccc3C(N)=O)n2)cc1OC`, the IC50 is reported as > 8 µM.

These molecules were tested on JVM-3 (assay: cells). Conditions: Homo sapiens, JVM-3.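 Further: growth inhibition of human JVM-3 cells, read out with a cell viability assay.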
Assay type: functional, cell-based, Homo sapiens
Description: SANGER: Inhibition of human JVM-3 cell growth in a cell viability assay.
In the case of `COc1ccc(-c2cc3nccn3c(Nc3ncccc3C(N)=O)n2)cc1OC`, the IC50 is reported as > 8 µM.

These molecules were tested on CGTH-W-1 (assay: cells). Conditions: Homo sapiens, CGTH-W-1.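 Further: growth inhibition of human CGTH-W-1 cells measured by cell viability assay.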
Assay type: functional, cell-based, Homo sapiens
Description: SANGER: Inhibition of human CGTH-W-1 cell growth in a cell viability assay.
Molecule `COc1ccc(-c2cc3nccn3c(Nc3ncccc3C(N)=O)n2)cc1OC` has an IC50 of 3.37 µM.

These molecules were tested on COLO-824 (assay: cells). Conditions: Homo sapiens, COLO-824.
Assay type: functional, cell-based, Homo sapiens
Description: SANGER: Inhibition of human COLO-824 cell growth in a cell viability assay.
For `COc1ccc(-c2cc3nccn3c(Nc3ncccc3C(N)=O)n2)cc1OC`, the IC50 was > 8 µM.

What follows are molecules tested on BB65-RCC (assay: cells). Conditions: Homo sapiens, BB65-RCC.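 Further: growth inhibition of the cell line, measured with a cell viability assay.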
Assay type: functional, cell-based, Homo sapiens
Description: SANGER: Inhibition of human BB65-RCC cell growth in a cell viability assay.
Work on `COc1ccc(-c2cc3nccn3c(Nc3ncccc3C(N)=O)n2)cc1OC` yielded an IC50 of 5.13 µM.

The molecules below were run on TE-5 (assay: cells). Conditions: Homo sapiens, TE-5.
Assay type: functional, cell-based, Homo sapiens
Description: SANGER: Inhibition of human TE-5 cell growth in a cell viability assay.
With `COc1ccc(-c2cc3nccn3c(Nc3ncccc3C(N)=O)n2)cc1OC` the IC50 was 5.54 µM.

Each molecule was assayed on NOS-1 (assay: cells). Conditions: Homo sapiens, NOS-1.
Assay type: functional, cell-based, Homo sapiens
Description: SANGER: Inhibition of human NOS-1 cell growth in a cell viability assay.
`COc1ccc(-c2cc3nccn3c(Nc3ncccc3C(N)=O)n2)cc1OC` showed an IC50 of 0.481 µM.

Each molecule was assayed on TE-11 (assay: cells). Conditions: Homo sapiens.
Assay type: functional, cell-based
Description: SANGER: Inhibition of human TE-11 cell growth in a cell viability assay.
In the case of `COc1ccc(-c2cc3nccn3c(Nc3ncccc3C(N)=O)n2)cc1OC`, the IC50 is reported as > 8 µM.

What follows are molecules tested on SNU1 (assay: cells). Conditions: Homo sapiens, SNU1.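 Further: growth inhibition of human NCI-SNU-1 cells, measured with a cell viability assay.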
Assay type: functional, cell-based, Homo sapiens
Description: SANGER: Inhibition of human NCI-SNU-1 cell growth in a cell viability assay.
`COc1ccc(-c2cc3nccn3c(Nc3ncccc3C(N)=O)n2)cc1OC` showed an IC50 of 1.99 µM.

The molecules below were run on KNS-81-FD (assay: cells). Conditions: Homo sapiens, KNS-81-FD.
Assay type: functional, cell-based, Homo sapiens
Description: SANGER: Inhibition of human KNS-81-FD cell growth in a cell viability assay.
In the case of `COc1ccc(-c2cc3nccn3c(Nc3ncccc3C(N)=O)n2)cc1OC`, the IC50 is reported as > 8 µM.

Each molecule was assayed on MZ1-PC (assay: cells). Conditions: Homo sapiens, MZ1-PC.
Assay type: functional, cell-based, Homo sapiens
Description: SANGER: Inhibition of human MZ1-PC cell growth in a cell viability assay.
`COc1ccc(-c2cc3nccn3c(Nc3ncccc3C(N)=O)n2)cc1OC` showed an IC50 of 3.49 µM.

Each molecule was assayed on ES3 (assay: cells). Conditions: Homo sapiens, ES3.
Assay type: functional, cell-based, Homo sapiens
Description: SANGER: Inhibition of human ES3 cell growth in a cell viability assay.
For `COc1ccc(-c2cc3nccn3c(Nc3ncccc3C(N)=O)n2)cc1OC`, the IC50 was 3.03 µM.

Each molecule was assayed on KARPAS-299 (assay: cells). Conditions: Homo sapiens, KARPAS-299.
Assay type: functional, cell-based, Homo sapiens
Description: SANGER: Inhibition of human KARPAS-299 cell growth in a cell viability assay.
`COc1ccc(-c2cc3nccn3c(Nc3ncccc3C(N)=O)n2)cc1OC` was tested, and the IC50 was > 8 µM.

The molecules below were run on OCI-AML2 (assay: cells). Conditions: Homo sapiens, OCI-AML2.
Assay type: functional, cell-based, Homo sapiens
Description: SANGER: Inhibition of human OCI-AML2 cell growth in a cell viability assay.
Work on `COc1ccc(-c2cc3nccn3c(Nc3ncccc3C(N)=O)n2)cc1OC` yielded an IC50 of 4.48 µM.

These molecules were tested on BT-474 (assay: cells). Conditions: Homo sapiens, BT-474.
Assay type: functional, cell-based, Homo sapiens
Description: SANGER: Inhibition of human BT-474 cell growth in a cell viability assay.
In the case of `COc1ccc(-c2cc3nccn3c(Nc3ncccc3C(N)=O)n2)cc1OC`, the IC50 is reported as > 8 µM.

The molecules below were run on TGBC1TKB (assay: cells). Conditions: Homo sapiens, TGBC1TKB.
Assay type: functional, cell-based, Homo sapiens
Description: SANGER: Inhibition of human TGBC1TKB cell growth in a cell viability assay.
`COc1ccc(-c2cc3nccn3c(Nc3ncccc3C(N)=O)n2)cc1OC` was tested, and the IC50 was > 8 µM.

The molecules below were run on ES1 (assay: cells). Conditions: Homo sapiens, ES1.
Assay type: functional, cell-based, Homo sapiens
Description: SANGER: Inhibition of human ES1 cell growth in a cell viability assay.
For `COc1ccc(-c2cc3nccn3c(Nc3ncccc3C(N)=O)n2)cc1OC`, the IC50 was 2.38 µM.

These molecules were tested on UACC-257 (assay: cells). Conditions: Homo sapiens, UACC-257.
Assay type: functional, cell-based, Homo sapiens
Description: SANGER: Inhibition of human UACC-257 cell growth in a cell viability assay.
With `COc1ccc(-c2cc3nccn3c(Nc3ncccc3C(N)=O)n2)cc1OC` the IC50 was > 8 µM.

Reference: ChEMBL document CHEMBL1201861, “Genomics of Drug Sensitity in Cancer screening data, Wellcome Trust Sanger Institute”
